Test [1] addresses Cyclin-dependent kinase 18 (Homo sapiens) (UniProt Q07002). The experiment in a line: Selectivity interaction (KinomeScan (DiscoverX)) EUB0000092b CDK18. The settings on record: at 10 µM.
Test [2] addresses Tyrosine-protein kinase receptor Tie-1 (Homo sapiens) (UniProt P35590). The experiment in a line: Selectivity interaction (KinomeScan (DiscoverX)) EUB0000695a TIE1. The settings on record: at 100 nM.
Test [3] deals with T1, RNA 5'-monophosphate methyltransferase (Homo sapiens) (UniProt Q7Z5W3).
T1 sequence (whole entry): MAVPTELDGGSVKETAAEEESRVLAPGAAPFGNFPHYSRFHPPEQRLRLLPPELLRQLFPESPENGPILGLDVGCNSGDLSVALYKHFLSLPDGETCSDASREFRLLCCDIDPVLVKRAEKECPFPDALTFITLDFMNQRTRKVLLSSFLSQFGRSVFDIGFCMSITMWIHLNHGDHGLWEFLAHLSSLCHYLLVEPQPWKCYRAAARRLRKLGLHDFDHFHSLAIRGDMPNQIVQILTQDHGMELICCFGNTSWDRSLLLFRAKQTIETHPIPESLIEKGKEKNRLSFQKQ
The experiment in a line: Selectivity interaction (Methyltransferase screen (radiometric assays, panel of 8 PRMTs, 21 protein lysine methyltransferases, 3 DNA methyltransferases, and one RNA methyltransferase)) EUB0000271b BCDIN3D.

Test [4] relates to Epidermal growth factor receptor (Homo sapiens), P00533 [UNDEFINED MUTATION]. The experiment in a line: Selectivity interaction (KinomeScan (DiscoverX)) EUB0000045b EGFR. The settings on record: at 1 µM.
Epidermal growth factor receptor (Homo sapiens), P00533 [UNDEFINED MUTATION], sequence (P00533 whole entry, looked up, change not shown): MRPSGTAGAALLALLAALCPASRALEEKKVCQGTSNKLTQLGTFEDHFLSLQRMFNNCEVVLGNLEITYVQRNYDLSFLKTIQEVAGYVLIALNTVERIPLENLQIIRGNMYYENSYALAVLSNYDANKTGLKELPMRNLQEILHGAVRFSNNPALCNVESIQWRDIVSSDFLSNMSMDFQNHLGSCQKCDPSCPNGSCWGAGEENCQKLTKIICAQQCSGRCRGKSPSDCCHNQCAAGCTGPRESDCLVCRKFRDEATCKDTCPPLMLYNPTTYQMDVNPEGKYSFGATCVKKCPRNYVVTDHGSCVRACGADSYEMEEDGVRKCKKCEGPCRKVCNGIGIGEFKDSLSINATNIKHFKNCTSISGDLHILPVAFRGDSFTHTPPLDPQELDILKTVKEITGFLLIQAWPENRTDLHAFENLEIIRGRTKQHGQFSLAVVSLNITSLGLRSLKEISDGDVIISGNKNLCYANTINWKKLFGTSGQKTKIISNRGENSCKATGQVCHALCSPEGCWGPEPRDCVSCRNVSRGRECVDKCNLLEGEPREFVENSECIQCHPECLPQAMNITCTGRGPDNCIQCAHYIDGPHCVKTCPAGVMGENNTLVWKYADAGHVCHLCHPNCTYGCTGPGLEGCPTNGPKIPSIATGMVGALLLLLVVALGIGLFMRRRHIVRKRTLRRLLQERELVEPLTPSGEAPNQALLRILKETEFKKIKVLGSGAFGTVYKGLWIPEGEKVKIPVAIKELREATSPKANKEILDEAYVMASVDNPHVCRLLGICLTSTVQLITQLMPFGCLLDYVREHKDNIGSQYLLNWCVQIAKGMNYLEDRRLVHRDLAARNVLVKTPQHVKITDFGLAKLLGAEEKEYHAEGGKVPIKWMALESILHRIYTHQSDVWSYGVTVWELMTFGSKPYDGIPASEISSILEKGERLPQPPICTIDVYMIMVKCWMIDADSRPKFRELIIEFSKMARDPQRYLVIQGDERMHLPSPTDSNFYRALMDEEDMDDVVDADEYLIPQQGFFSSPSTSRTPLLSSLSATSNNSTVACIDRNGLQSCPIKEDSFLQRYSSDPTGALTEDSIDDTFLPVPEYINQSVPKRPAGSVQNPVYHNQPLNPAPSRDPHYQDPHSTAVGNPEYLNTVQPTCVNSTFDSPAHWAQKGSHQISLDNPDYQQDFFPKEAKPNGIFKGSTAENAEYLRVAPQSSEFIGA
For test [5], the target named is T2, Histone-lysine N-methyltransferase EHMT1 (Homo sapiens) (UniProt Q9H9B1).
T2 sequence (whole entry): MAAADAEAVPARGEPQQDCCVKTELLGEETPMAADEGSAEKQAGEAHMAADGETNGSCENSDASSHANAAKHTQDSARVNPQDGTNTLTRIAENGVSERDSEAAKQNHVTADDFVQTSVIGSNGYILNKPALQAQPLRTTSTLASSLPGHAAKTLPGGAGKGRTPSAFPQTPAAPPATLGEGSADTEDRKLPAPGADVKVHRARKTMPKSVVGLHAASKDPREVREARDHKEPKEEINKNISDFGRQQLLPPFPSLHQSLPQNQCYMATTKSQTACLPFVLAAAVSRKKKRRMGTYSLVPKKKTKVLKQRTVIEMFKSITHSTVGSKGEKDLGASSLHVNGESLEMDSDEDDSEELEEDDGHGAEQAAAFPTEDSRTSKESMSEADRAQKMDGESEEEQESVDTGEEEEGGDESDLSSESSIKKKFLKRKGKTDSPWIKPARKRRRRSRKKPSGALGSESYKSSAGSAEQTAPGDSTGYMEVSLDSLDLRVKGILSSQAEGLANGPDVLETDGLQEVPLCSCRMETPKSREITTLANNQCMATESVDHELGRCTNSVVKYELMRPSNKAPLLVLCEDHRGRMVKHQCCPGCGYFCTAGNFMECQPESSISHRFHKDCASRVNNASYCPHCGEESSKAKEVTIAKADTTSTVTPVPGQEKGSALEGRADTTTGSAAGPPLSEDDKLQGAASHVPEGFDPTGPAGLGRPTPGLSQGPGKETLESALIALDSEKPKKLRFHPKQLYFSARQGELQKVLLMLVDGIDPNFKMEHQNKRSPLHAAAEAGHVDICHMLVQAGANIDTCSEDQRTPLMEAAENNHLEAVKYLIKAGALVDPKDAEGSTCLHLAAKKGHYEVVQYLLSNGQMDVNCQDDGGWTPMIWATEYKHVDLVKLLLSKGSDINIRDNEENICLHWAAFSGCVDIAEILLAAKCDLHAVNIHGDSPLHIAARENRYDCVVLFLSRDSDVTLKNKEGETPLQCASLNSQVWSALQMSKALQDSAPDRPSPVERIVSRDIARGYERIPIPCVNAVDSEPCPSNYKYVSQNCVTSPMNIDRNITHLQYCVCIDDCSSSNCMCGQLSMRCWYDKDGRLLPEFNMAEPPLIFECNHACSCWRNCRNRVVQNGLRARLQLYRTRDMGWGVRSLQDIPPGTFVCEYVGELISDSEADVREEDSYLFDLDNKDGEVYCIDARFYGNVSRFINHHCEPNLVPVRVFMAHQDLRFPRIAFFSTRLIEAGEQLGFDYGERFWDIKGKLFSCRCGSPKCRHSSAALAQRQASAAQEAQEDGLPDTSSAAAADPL
The settings on record: at 1 µM.

Test [6] has as its target Serine/threonine-protein kinase SIK1 (Homo sapiens) (UniProt P57059). The experiment in a line: Selectivity interaction (KinomeScan (DiscoverX)) EUB0000607a SIK1. The settings on record: at 10 µM.
Test [7] has as its target Mitogen-activated protein kinase kinase kinase 20 (Homo sapiens) (UniProt Q9NYL2). The experiment in a line: Selectivity interaction (ActivX KiNativ screen (kinase selectivity in THP-1 cell lysates)) EUB0000639a MAP3K20. It is filed as subcellular. Conditions: lysate.

Mitogen-activated protein kinase kinase kinase 20 (Homo sapiens), sequence (Q9NYL2 2-800 limits assumed): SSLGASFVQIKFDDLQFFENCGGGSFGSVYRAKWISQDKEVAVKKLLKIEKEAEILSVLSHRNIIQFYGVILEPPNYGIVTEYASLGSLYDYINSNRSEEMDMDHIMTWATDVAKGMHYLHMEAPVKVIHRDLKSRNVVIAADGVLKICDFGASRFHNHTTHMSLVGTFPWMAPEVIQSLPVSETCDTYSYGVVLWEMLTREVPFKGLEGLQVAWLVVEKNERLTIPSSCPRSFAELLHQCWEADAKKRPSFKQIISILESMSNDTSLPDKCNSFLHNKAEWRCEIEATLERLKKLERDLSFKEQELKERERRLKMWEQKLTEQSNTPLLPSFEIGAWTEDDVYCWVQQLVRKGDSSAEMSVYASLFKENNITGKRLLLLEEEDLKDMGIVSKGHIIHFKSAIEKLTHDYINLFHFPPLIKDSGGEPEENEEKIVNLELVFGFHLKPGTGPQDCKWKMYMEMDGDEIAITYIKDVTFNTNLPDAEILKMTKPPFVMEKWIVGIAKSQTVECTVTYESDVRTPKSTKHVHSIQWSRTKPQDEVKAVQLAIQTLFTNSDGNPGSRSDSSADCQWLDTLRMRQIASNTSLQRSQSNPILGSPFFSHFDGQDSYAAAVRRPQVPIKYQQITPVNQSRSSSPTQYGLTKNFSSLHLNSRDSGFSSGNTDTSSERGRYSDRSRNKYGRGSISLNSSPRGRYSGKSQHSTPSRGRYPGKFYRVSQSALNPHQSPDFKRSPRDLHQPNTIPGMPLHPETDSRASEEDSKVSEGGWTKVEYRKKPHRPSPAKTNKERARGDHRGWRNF
Tyrosine-protein kinase receptor Tie-1 (Homo sapiens), sequence (P35590 whole entry): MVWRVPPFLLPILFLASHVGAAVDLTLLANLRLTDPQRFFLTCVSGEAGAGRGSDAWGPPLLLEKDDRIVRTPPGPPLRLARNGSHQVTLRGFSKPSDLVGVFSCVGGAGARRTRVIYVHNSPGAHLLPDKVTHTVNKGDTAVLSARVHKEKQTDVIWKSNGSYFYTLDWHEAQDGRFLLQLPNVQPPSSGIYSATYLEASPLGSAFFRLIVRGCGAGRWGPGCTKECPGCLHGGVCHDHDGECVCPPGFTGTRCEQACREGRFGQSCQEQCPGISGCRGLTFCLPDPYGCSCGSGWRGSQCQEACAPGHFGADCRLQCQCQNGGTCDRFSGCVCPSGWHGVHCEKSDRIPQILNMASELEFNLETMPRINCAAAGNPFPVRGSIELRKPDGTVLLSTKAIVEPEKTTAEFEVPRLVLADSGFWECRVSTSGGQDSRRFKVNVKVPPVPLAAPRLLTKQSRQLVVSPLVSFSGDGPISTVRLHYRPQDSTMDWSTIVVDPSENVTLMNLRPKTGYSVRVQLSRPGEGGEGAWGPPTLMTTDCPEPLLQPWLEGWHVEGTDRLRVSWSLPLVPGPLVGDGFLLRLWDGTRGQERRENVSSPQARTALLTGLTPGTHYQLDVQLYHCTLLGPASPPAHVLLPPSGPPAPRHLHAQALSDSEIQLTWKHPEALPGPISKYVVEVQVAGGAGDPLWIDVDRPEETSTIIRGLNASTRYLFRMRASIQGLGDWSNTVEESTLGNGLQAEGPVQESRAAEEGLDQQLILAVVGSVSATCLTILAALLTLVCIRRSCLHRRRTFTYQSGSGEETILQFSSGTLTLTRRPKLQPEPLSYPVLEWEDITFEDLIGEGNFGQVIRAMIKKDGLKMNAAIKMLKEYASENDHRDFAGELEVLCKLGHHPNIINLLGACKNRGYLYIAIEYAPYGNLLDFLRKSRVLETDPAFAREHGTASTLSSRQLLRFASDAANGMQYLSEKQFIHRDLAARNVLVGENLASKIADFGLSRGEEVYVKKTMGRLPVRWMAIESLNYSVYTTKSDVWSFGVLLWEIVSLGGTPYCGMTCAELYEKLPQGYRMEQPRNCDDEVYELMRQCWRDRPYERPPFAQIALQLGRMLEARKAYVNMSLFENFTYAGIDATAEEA
Serine/threonine-protein kinase SIK1 (Homo sapiens), sequence (P57059 whole entry): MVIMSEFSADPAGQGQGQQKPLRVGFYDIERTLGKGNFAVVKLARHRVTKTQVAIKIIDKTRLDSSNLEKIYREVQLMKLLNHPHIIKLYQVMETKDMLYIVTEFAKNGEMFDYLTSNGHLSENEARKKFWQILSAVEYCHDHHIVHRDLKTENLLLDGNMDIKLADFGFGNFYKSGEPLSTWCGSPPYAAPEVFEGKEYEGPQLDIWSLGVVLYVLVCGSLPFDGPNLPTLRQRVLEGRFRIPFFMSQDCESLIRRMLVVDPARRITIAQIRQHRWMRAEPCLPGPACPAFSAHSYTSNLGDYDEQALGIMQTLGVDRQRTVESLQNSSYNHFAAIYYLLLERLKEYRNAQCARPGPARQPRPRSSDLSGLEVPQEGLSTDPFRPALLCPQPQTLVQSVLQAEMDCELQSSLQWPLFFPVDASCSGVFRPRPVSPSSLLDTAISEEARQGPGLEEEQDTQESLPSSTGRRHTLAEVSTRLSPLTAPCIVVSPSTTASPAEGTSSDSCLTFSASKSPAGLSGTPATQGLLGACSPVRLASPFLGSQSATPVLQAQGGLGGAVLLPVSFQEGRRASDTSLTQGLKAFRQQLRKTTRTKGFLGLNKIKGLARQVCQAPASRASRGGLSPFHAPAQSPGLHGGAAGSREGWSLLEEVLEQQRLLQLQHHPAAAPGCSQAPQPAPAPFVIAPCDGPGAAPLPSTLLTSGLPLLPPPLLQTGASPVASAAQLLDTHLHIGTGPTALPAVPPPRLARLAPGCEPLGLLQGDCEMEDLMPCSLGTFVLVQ
Cyclin-dependent kinase 18 (Homo sapiens), sequence (Q07002 whole entry): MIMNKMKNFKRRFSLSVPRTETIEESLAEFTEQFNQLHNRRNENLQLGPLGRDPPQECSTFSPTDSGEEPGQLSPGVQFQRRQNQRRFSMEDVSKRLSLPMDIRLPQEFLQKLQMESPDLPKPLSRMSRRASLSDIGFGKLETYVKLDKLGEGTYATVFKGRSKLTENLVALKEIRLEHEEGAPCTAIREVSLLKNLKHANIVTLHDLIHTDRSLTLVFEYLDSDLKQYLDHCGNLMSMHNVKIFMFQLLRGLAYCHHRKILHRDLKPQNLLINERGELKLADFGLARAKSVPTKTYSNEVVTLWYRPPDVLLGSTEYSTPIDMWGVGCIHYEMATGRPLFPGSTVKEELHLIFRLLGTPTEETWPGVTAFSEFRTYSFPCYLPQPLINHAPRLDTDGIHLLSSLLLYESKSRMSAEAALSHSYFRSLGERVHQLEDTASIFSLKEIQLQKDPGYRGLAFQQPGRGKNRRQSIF

Consider `CCC(=O)N1CCN(c2ccc(-n3c(=O)ccc4cnc5ccc(-c6cnc7ccccc7c6)cc5c43)cc2C(F)(F)F)CC1`, for which the % of control in test [1] turned out to be 97%.

In turn, `Cc1cc(F)c(C(=O)Nc2cccc(-c3nncn3C(C)C)n2)cc1-n1cnc(C2CC2)c1` registered a % of control in test [2] of 87%.

As for `Cc1cc(C)cc([C@@H]2c3cc(C)ccc3NC(=O)CN2C(=O)c2ccc(Br)s2)c1`, the % of activity in test [3] (at 1 µM) turned out to be 100%; in test [3] (at 10 µM) it was 101%.

Compound `C=CC(=O)Nc1cc(-n2c(=O)ccc3cnc4ccc(-c5ccc(NS(C)(=O)=O)cc5)cc4c32)ccc1C` gave a % of control in test [4] of 89%.

In test [5], `CNCCN1CCC(c2cc(CN(C)C(=O)c3cccc(Oc4ccccc4)c3)ccn2)CC1` displayed a % activity greater than 90%.

As to `CNC(=O)Nc1ccc(-c2nc(N3CC4CCC(C3)O4)c3cnn(C4CCC5(CC4)OCCO5)c3n2)cc1`, the % of control in test [6] came to 86%.

For `CC[C@@H]1[C@H](F)C(=O)N[C@@H]1COc1nccc2cc(C(N)=O)c(OC)cc12` [ZIMLOVISERTIB], the % of inhibition in test [7] (at 0.01 µM) was -7.8%; in test [7] (at 0.04 µM) it was -3.3%; in test [7] (at 0.2 µM) it was 9.5%; in test [7] (at 1 µM), 12.2%; in test [7] (at 5 µM) it was -6.6%.

For the origin of these results see ChEMBL document CHEMBL5465560, “Selectivity Literature for EUbOPEN Chemogenomic Library” (2024).
